Paper PMC8177795 (Cancer Science, 2021)
“Also recorded” adds a separate entry of the source.

Assays:
[1] = system: relapsed/refractory (r/r) B‐cell malignancies; assay: Antitumor activity; assay type: in vivo, Japanese patients
[2] = Plasma pharmacokinetics of acalabrutinib and ACP‐5862; assay type: in vivo, Japanese patients
[3] = r/r CLL; cited from earlier work
[4] = Safety and tolerability; assay type: in vivo, Japanese patients; settings: for Overall safety and tolerability: adult Japanese patients with r/r B‐cell malignancies
[5] = system: r/r MCL; settings: cited from earlier work
[6] = CLL/SLL cohort (n = 9), Part 1 + Part 2
[7] = MCL cohort (n = 13), Part 1 + Part 2
[8] = multiple dose 100 mg BID, day 8, part 1
[9] = multiple dose 100 mg BID, day 8, part 1, fasting

## CC#CC(=O)N1CCC[C@H]1c1nc(-c2ccc(C(=O)Nc3ccccn3)cc2)c2c(N)nccn12 [acalabrutinib]
[1]; [6]
  CR: 0 Number (%) of patients with a response
  CRi: 2 (22) Number (%) of patients with a response
  Clinical PD: 0 Number (%) of patients with a response
  Nonresponse (total): 1 (11) Number (%) of patients with a response
  Not evaluable: 0 Number (%) of patients with a response
  ORR: 8 (89) Number (%) of patients with a response
  PD: 0 Number (%) of patients with a response
  PR: 6 (67) Number (%) of patients with a response
  PRL: 1 (11) Number (%) of patients with a response
  Stable disease: 0 Number (%) of patients with a response
[1]; CLL/SLL cohort including PRL (n = 9), Part 1 + Part 2
  ORR: 9 (100) Number (%) of patients with a response
[1]; [7]
  CR: 5 (38) Number (%) of patients with a response
  Nonresponse (total): 5 (38) Number (%) of patients with a response
  Not evaluable: 0 Number (%) of patients with a response
  ORR: 8 (62) Number (%) of patients with a response
  PD: 2 (15) Number (%) of patients with a response
  PR: 3 (23) Number (%) of patients with a response
  Stable disease: 3 (23) Number (%) of patients with a response
[1]; r/r CLL/SLL cohort (8/9 patients)
  Overall response rate (ORR): 89%
[1]; r/r CLL/SLL cohort (n = 9)
  Median progression‐free survival (PFS): not reached
[1]; r/r CLL/SLL cohort including PRL (9/9 patients)
  Overall response rate (ORR): 100%
[1]; r/r MCL cohort (8/13 patients)
  Overall response rate (ORR): 62%
[1]; r/r MCL cohort (n = 13)
  Median progression‐free survival (PFS): 7 months
[2]; after a single dose
  Coefficient of variation (CV) of Cmax: 174%
[2]; after multiple dosing
  Interpatient variability (CVs): < 30%
[2]; [8]
  RAC (extent of accumulation on multiple dosing), Amean ± SD: 1.69
  TC (time dependency of pharmacokinetics), Amean ± SD: 1.163 ± 0.4770
[2]; [9]
  CL/F (oral clearance), Amean ± SD: 84.89 ± 19.84 L/h
  t1/2, Amean ± SD: 1.795 ± 0.7404 h
[2]; multiple dose 100 mg BID, day 8, part 1, listed as Acalabrutinib
  RAC (extent of accumulation on multiple dosing), Amean ± SD: 1.694 ± 1.275
[2]; single dose 100 mg acalabrutinib, part 1, fasting
  CL/F (oral clearance), Amean ± SD: 99.54 ± 44.33 L/h
[2]; single‐ and multiple‐dose periods
  Absorption: rapidly absorbed
[3]
  Headache, patients: 43%
[4]; 100 mg BID
  Overall safety and tolerability: safe and well‐tolerated
[4]; 100 mg BID, listed as Acalabrutinib
  Overall safety and tolerability: generally safe and well‐tolerated
[4]; 100 mg BID, part 1
  Dose‐limiting toxicities (DLTs): No DLTs were observed
[4]; Part 1 (N = 6)
  AE of clinical interest: Anemia: 2 (33.3) n (%)
  AE of clinical interest: Atrial fibrillation: 0 n (%)
  AE of clinical interest: Cardiac events: 0 n (%)
  AE of clinical interest: Hemorrhage: 0 n (%)
  AE of clinical interest: Hepatotoxicity: 0 n (%)
  AE of clinical interest: Infections: 6 (100.0) n (%)
  AE of clinical interest: Interstitial lung disease/pneumonitis: 1 (16.7) n (%)
  AE of clinical interest: Leukopenia: 1 (16.7) n (%)
  AE of clinical interest: Neutropenia: 1 (16.7) n (%)
  AE of clinical interest: Other hemorrhage: 0 n (%)
  AE of clinical interest: Other leukopenia: 0 n (%)
  AE of clinical interest: Second primary malignancies (excl. nonmelanoma skin cancer): 1 (16.7) n (%)
  AE of clinical interest: Second primary malignancy: 1 (16.7) n (%)
  AE of clinical interest: Thrombocytopenia: 1 (16.7) n (%)
  AE of clinical interest: Tumor lysis syndrome: 0 n (%)
  Patients with any AE of clinical interest: 6 (100.0) n (%)
  Patients with any SAE: 3 (50.0) n (%)
  SAE: Abdominal pain upper: 0 n (%)
  SAE: Anemia: 1 (16.7) n (%)
  SAE: Blood and lymphatic system disorders: 1 (16.7) n (%)
  SAE: Colon cancer: 1 (16.7) n (%)
  SAE: Gastrointestinal disorders: 0 n (%)
  SAE: Infections and infestations: 1 (16.7) n (%)
  SAE: Neoplasms benign, malignant, and unspecified (incl. cysts and polyps): 1 (16.7) n (%)
  SAE: Pneumonia: 1 (16.7) n (%)
[4]; Total (N = 25)
  AE of clinical interest: 95 Total number of AEs
  AE of clinical interest: Anemia: 6 (24.0) n (%)
  AE of clinical interest: Atrial fibrillation: 1 (4.0) n (%)
  AE of clinical interest: Cardiac events: 1 (4.0) n (%)
  AE of clinical interest: Hemorrhage: 8 (32.0) n (%)
  AE of clinical interest: Hepatotoxicity: 3 (12.0) n (%)
  AE of clinical interest: Infections: 16 (64.0) n (%)
  AE of clinical interest: Interstitial lung disease/pneumonitis: 1 (4.0) n (%)
  AE of clinical interest: Leukopenia: 7 (28.0) n (%)
  AE of clinical interest: Neutropenia: 6 (24.0) n (%)
  AE of clinical interest: Other hemorrhage: 8 (32.0) n (%)
  AE of clinical interest: Other leukopenia: 3 (12.0) n (%)
  AE of clinical interest: Second primary malignancies (excl. nonmelanoma skin cancer): 1 (4.0) n (%)
  AE of clinical interest: Second primary malignancy: 1 (4.0) n (%)
  AE of clinical interest: Thrombocytopenia: 5 (20.0) n (%)
  AE of clinical interest: Tumor lysis syndrome: 1 (4.0) n (%)
  Patients with any AE of clinical interest: 22 (88.0) n (%)
  Patients with any SAE: 6 (24.0) n (%)
  SAE: Abdominal pain upper: 1 (4.0) n (%)
  SAE: Anemia: 1 (4.0) n (%)
  SAE: Blood and lymphatic system disorders: 1 (4.0) n (%)
  SAE: Colon cancer: 1 (4.0) n (%)
  SAE: Gastrointestinal disorders: 1 (4.0) n (%)
  SAE: Infections and infestations: 3 (12.0 n (%)
  SAE: Neoplasms benign, malignant, and unspecified (incl. cysts and polyps): 1 (4.0) n (%)
  SAE: Pneumonia: 3 (12.0) n (%)
[4]; all 25 treated patients
  AEs of clinical interest, patients: 88%
  AEs resulting in treatment discontinuation or death: No AEs resulted in treatment discontinuation or death; also recorded: No AEs with the outcome of death or AEs/SAEs leading to treatment discontinuation were reported
  Grade 4 AEs, patients: 20%
  Headache (any AE), patients: 32%
  Rash (any AE), patients: 28%
  SAEs related to treatment, patients: 16%
  Serious adverse events (SAEs), patients: 24%
  Treatment‐related adverse events, patients: 88%
  Treatment‐related headache, patients: 28%
  Treatment‐related purpura, patients: 24%
[4]; r/r CLL/SLL cohort (N = 9)
  AE of clinical interest: Anemia: 2 (22.2) n (%)
  AE of clinical interest: Atrial fibrillation: 0 n (%)
  AE of clinical interest: Cardiac events: 0 n (%)
  AE of clinical interest: Hemorrhage: 4 (44.4) n (%)
  AE of clinical interest: Hepatotoxicity: 1 (11.1) n (%)
  AE of clinical interest: Infections: 6 (66.7) n (%)
  AE of clinical interest: Interstitial lung disease/pneumonitis: 0 n (%)
  AE of clinical interest: Leukopenia: 3 (33.3) n (%)
  AE of clinical interest: Neutropenia: 3 (33.3) n (%)
  AE of clinical interest: Other hemorrhage: 4 (44.4) n (%)
  AE of clinical interest: Other leukopenia: 0 n (%)
  AE of clinical interest: Second primary malignancies (excl. nonmelanoma skin cancer): 1 (11.1) n (%)
  AE of clinical interest: Second primary malignancy: 1 (11.1) n (%)
  AE of clinical interest: Thrombocytopenia: 1 (11.1) n (%)
  AE of clinical interest: Tumor lysis syndrome: 0 n (%)
  Patients with any AE of clinical interest: 8 (88.9) n (%)
  Patients with any SAE: 2 (22.2) n (%)
  SAE: Abdominal pain upper: 0 n (%)
  SAE: Anemia: 0 n (%)
  SAE: Blood and lymphatic system disorders: 0 n (%)
  SAE: Colon cancer: 1 (11.1) n (%)
  SAE: Gastrointestinal disorders: 0 n (%)
  SAE: Infections and infestations: 1 (11.1) n (%)
  SAE: Neoplasms benign, malignant, and unspecified (incl. cysts and polyps): 1 (11.1) n (%)
  SAE: Pneumonia: 1 (11.1) n (%)
[4]; r/r MCL cohort (N = 13)
  AE of clinical interest: Anemia: 3 (23.1) n (%)
  AE of clinical interest: Atrial fibrillation: 1 (7.7) n (%)
  AE of clinical interest: Cardiac events: 1 (7.7) n (%)
  AE of clinical interest: Hemorrhage: 4 (30.8) n (%)
  AE of clinical interest: Hepatotoxicity: 2 (15.4) n (%)
  AE of clinical interest: Infections: 7 (53.8) n (%)
  AE of clinical interest: Interstitial lung disease/pneumonitis: 1 (7.7) n (%)
  AE of clinical interest: Leukopenia: 4 (30.8) n (%)
  AE of clinical interest: Neutropenia: 3 (23.1) n (%)
  AE of clinical interest: Other hemorrhage: 4 (30.8) n (%)
  AE of clinical interest: Other leukopenia: 3 (23.1) n (%)
  AE of clinical interest: Second primary malignancies (excl. nonmelanoma skin cancer): 0 n (%)
  AE of clinical interest: Second primary malignancy: 0 n (%)
  AE of clinical interest: Thrombocytopenia: 3 (23.1) n (%)
  AE of clinical interest: Tumor lysis syndrome: 1 (7.7) n (%)
  Patients with any AE of clinical interest: 11 (84.6) n (%)
  Patients with any SAE: 3 (23.1) n (%)
  SAE: Abdominal pain upper: 1 (7.7) n (%)
  SAE: Anemia: 0 n (%)
  SAE: Blood and lymphatic system disorders: 0 n (%)
  SAE: Colon cancer: 0 n (%)
  SAE: Gastrointestinal disorders: 1 (7.7) n (%)
  SAE: Infections and infestations: 2 (15.4) n (%)
  SAE: Neoplasms benign, malignant, and unspecified (incl. cysts and polyps): 0 n (%)
  SAE: Pneumonia: 2 (15.4) n (%)
[5]
  Headache, patients: 38%
